Experimental findings from ChEMBL document CHEMBL1201862, “PubChem BioAssay data set” (2004) are described below.

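Cultured in 96-well plates, cells were exposed to test compound for 48 hours across five concentrations. GI50 marks 50% less growth.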 Calls of active or inactive are those of the source. No stated cut-off is given here; in the data, active = GI50 up to about 1.1 µM and inactive = higher.

Holding throughout (experiment): NCI tumour cell line growth inhibition, 48 h
The subject of assay [1] is CAKI-1.
Assay [2] concerns UACC-62.
Assay [3] has as its system SNB-19.
Assay [4] relates to ACHN.
Assay [5] has as its system NCI-H23.
Assay [6] deals with SN12C.
For assay [7], the system named is COLO 205.
Assay [8] has as its system PC-3.
Assay [9] deals with SW-620.
Assay [10] relates to OVCAR-8.
For assay [11], the system named is EKVX.
In assay [12] the test system is 786-0.
For assay [13], the system named is SK-MEL-5.
In assay [14] the test system is HT-29.
The subject of assay [15] is KM12.
The test system of assay [16] is T47D.
Assay [17] relates to Malme-3M.
Assay [18] relates to A549.
Assay [19] relates to HCC 2998.
Assay [20] relates to A498.

For the compound `CCc1cn(C2CC(CO)C(CO)S2)c(=O)[nH]c1=O` (configuration not stated), the GI50 in assay [1], in [2], in assay [3], in [4], in [5] and in assay [6] was > 100 µM (inactive) each time. The GI50 in assay [7], in assay [8], in assay [9], in [10], in assay [11] and in assay [12] was > 100 µM (inactive) each time. Besides, the GI50 in [13], in assay [14], in assay [15], in [16], in assay [17] and in assay [18] was > 100 µM (inactive) each time. The GI50 in assay [19] and in [20] was > 100 µM (inactive) in each case.
Consider `CC(C)(C)N1CSC(=S)N(Cc2ccco2)C1`, for which the GI50 in assay [1] is 2.83 µM (inactive); in assay [2] it was 7.05 µM (inactive); in assay [3] it was 3.91 µM (inactive); in assay [4], 3.27 µM (inactive); in assay [5], 2.37 µM (inactive); in [6] it was 4.35 µM (inactive). Further, the GI50 is 3.65 µM (inactive) in assay [7]; 3.35 µM (inactive) in assay [8]; 1.21 µM (inactive) in assay [9]; 2.12 µM (inactive) in [10]; 14.4 µM (inactive) in [11]; 1.63 µM (inactive) in assay [12]. Moreover, the GI50 in assay [13] was 3.61 µM (inactive); in assay [14] it was 3.27 µM (inactive); in [15], 2.7 µM (inactive); in [16] it was 5.64 µM (inactive); in assay [17] it was 4.16 µM (inactive); in assay [18], 5.4 µM (inactive). For the same compound, the GI50 is 4.02 µM (inactive) in [19] and 13.3 µM (inactive) in assay [20].
`CCOC(=O)/C(C(=O)Nc1ccc(F)cc1)=C(/N)N1CCOCC1`: the GI50 in [1], in assay [2], in assay [3], in assay [4], in assay [5] and in assay [6] was > 100 µM (inactive) each time. The GI50 in assay [7], in [8], in assay [9], in assay [10], in [11] and in assay [12] was > 100 µM (inactive) each time. Also, the GI50 in assay [14], in [15], in assay [16], in assay [17], in assay [18] and in assay [19] was > 100 µM (inactive) throughout. In addition, the GI50 in assay [20] is > 100 µM (inactive).
In the case of `Cc1n[nH]c(=O)n1/N=C/c1c[nH]c2ccccc12`, the GI50 in assay [1] is > 100 µM (inactive); in assay [2] it was > 100 µM (inactive); in assay [3] it was > 100 µM (inactive); in assay [4], > 100 µM (inactive); in assay [5], 80.5 µM (inactive); in assay [6], > 100 µM (inactive). Also, the GI50 is > 100 µM (inactive) in [7]; > 100 µM (inactive) in assay [8]; > 100 µM (inactive) in [9]; > 100 µM (inactive) in assay [10]; 50.7 µM (inactive) in assay [11]; > 100 µM (inactive) in [12]. Further, the GI50 in assay [15], in [16], in [17], in assay [18], in assay [19] and in assay [20] was > 100 µM (inactive) in each case.
For `COC1(OC)C[C@H](C)[C@@]23O[C@]24c2cc(O)c5c(c2N[C@H]3C#C/C=C\C#C[C@]14O)C(=O)c1ccccc1C5=O`, the GI50 in assay [1] is 0.005 µM (active); in assay [2] it was 0.005 µM (active); in assay [3], 0.005 µM (active); in assay [5], 0.005 µM (active); in assay [6] it was 0.00136 µM (active); in assay [7], 0.005 µM (active). Moreover, the GI50 in assay [8] is 0.005 µM (active); in assay [9], 0.005 µM (active); in [10], 0.005 µM (active); in [11] it was 0.0286 µM (active); in assay [12] it was 0.005 µM (active); in [13], 0.005 µM (active). Besides, the GI50 in [14] is 0.00655 µM (active); in assay [16], 0.005 µM (active); in [17] it was 0.005 µM (active); in assay [18], 0.005 µM (active); in assay [19], 0.00805 µM (active); in [20], 0.00119 µM (active).
For the compound `O=[N+]([O-])/C(C(Cl)=C(Cl)Cl)=C1/OCCS1`, the GI50 in [1] is 29.6 µM (inactive); in [2] it was 25.5 µM (inactive); in assay [3] it was 50.4 µM (inactive); in assay [4] it was 20.4 µM (inactive); in assay [5], 23.4 µM (inactive); in assay [6], 23 µM (inactive). The GI50 was 19.8 µM (inactive) in assay [7]; 35.9 µM (inactive) in assay [8]; 16.8 µM (inactive) in assay [10]; 32.1 µM (inactive) in [11]; 23 µM (inactive) in [12]; 19.1 µM (inactive) in assay [13]. In addition, the GI50 in assay [14] was 27.5 µM (inactive); in assay [15] it was 31.9 µM (inactive); in assay [16], 37.2 µM (inactive); in assay [17], 17.7 µM (inactive); in assay [18] it was 23.3 µM (inactive); in assay [19], 37.9 µM (inactive). In assay [20], the GI50 was 20.3 µM (inactive).
For the compound `COc1ccc2c(c1)CC[C@@H]1[C@@H]2CC[C@]2(C)C(=O)/C(=C/c3ccc(C#N)cc3)C[C@@H]12`, the GI50 in assay [1], in [2], in [3], in assay [4], in assay [5] and in assay [6] was > 100 µM (inactive) throughout. Besides, the GI50 in [7], in [8], in assay [9], in [10], in assay [11] and in assay [12] was > 100 µM (inactive) throughout. In addition, the GI50 in [13], in [15], in assay [16], in [17], in assay [18] and in assay [19] was > 100 µM (inactive) in each case. Also, the GI50 in assay [20] is > 100 µM (inactive).
As to `CC1=CC(=O)N(n2c(Cc3ccccc3)n[nH]c2=O)C1=O`, the GI50 in assay [1], in assay [2], in assay [3], in assay [4], in [5] and in assay [6] was > 100 µM (inactive) each time. In addition, the GI50 is > 100 µM (inactive) in assay [7]; 93.5 µM (inactive) in [8]; 83.9 µM (inactive) in assay [9]; > 100 µM (inactive) in assay [10]; > 100 µM (inactive) in assay [11]; > 100 µM (inactive) in assay [12]. Further, the GI50 in assay [13] is > 100 µM (inactive); in assay [14], > 100 µM (inactive); in assay [15], > 100 µM (inactive); in assay [16] it was 98.4 µM (inactive); in assay [17], > 100 µM (inactive); in [18] it was > 100 µM (inactive). The GI50 in [19] and in assay [20] was > 100 µM (inactive) each time.
On to `COc1ccc2sc(-n3nc4ccccc4c3Nc3nc4ccc(OC)cc4s3)nc2c1`, for which the GI50 in assay [1] is 1.28 µM (inactive); in assay [2] it was 2.95 µM (inactive); in [3], 2.33 µM (inactive); in assay [4], 2.6 µM (inactive); in [5] it was 1.73 µM (inactive); in assay [6], 3.07 µM (inactive). Moreover, the GI50 was 14.9 µM (inactive) in [7]; 2.89 µM (inactive) in [8]; 7.5 µM (inactive) in [9]; 1.29 µM (inactive) in [10]; 3.52 µM (inactive) in assay [11]; 1.64 µM (inactive) in assay [12]. In addition, the GI50 in assay [13] was 2.26 µM (inactive); in assay [14] it was 3.59 µM (inactive); in assay [15], 3.99 µM (inactive); in assay [16], 1 µM (active); in [17], 3.8 µM (inactive); in assay [18] it was 3.77 µM (inactive). In addition, the values for the GI50 in assay [19] and in assay [20] were 1.43 µM (inactive) and 0.873 µM (active), respectively.
As for `NCCCCNCCCNC(=O)CNC(=O)CC(O)C(N)CCCC(NC(=O)C(CN)NC(=O)C(O)CNC(=O)CC(N)c1ccc(O)cc1)C(=O)O` (configuration not stated), the GI50 in assay [1], in assay [2], in [3], in assay [4], in assay [5] and in assay [6] was > 10 µM (inactive) in each case. Besides, the GI50 in assay [7], in assay [8], in assay [10], in [11], in assay [12] and in assay [13] was > 10 µM (inactive) in each case. In addition, the GI50 in [14], in assay [15], in [16], in [17], in assay [18] and in assay [19] was > 10 µM (inactive) each time. Besides, the GI50 in [20] is > 10 µM (inactive).
